Assay results as given in patent USRE38257E1, “Piperdine derivatives and hypotensives containing the same” (Ajinomoto Co., Inc., priority 1988, dated 2003).
Counter-ions that a name gives are not always drawn.

System: male spontaneously hypertensive rats
Experiment: Decrease in systolic blood pressure in spontaneously hypertensive rats after intravenous bolus injection, indirect (tail-cuff) method
Assay type: in vivo, rat
Conditions: for Decrease in systolic blood pressure (mmHg) time after administration (hour) 0.5: 0.5 hour after administration; for Decrease in systolic blood pressure (mmHg) time after administration (hour) 4: 4 hours after administration
Protocol: As test animals, four male spontaneously hypertensive rats (weight 400 to 440 g) that were sufficiently adapted for feeding and in which hypertension was confirmed were used.
Physiological saline aqueous solution containing 2.5% Nicolle and 2.5% ethanol of sample was intravenously administered by bolus injection at a dose of 1 ml per 1 kg of body weight. Systolic blood pressure after administration was measured by the indirect (tail-cuff) method.

| Compound | Decrease in systolic blood pressure (mmHg) time after administration (hour) 0.5 (dose 10 mg/kg i.v. bolus) | Decrease in systolic blood pressure (mmHg) time after administration (hour) 4 (dose 10 mg/kg i.v. bolus) | further results |
| --- | --- | --- | --- |
| COC(=O)c1cccc(C=CCN2CCC(=C3c4ccccc4C=Cc4ccccc43)CC2)c1.Cl [Example 375, 4-(5H-Dibenzo[a,d]cyclohepten-5-ylidene)-1-(3-methoxycarbonylcinnamyl)piperidine hydrochloride] | – | – | Decrease in systolic blood pressure (mmHg) time after administration (hour) 0.5 (dose 1 mg/kg i.v. bolus): −126 mmHg; Decrease in systolic blood pressure (mmHg) time after administration (hour) 4 (dose 1 mg/kg i.v. bolus): −70 mmHg |
| 1-(4-Methoxyxyxlohexyl)-4-(4-(5H-dibenzo[a,d]cyclohepten-5-ylidene)-1-piperidinyl)butane hydroxybutane hydrochloride [Example 208] | −131 mmHg | −19 mmHg | – |
| O=C(c1cccc2ccccc12)N1CCC(=C2c3ccccc3C=Cc3ccccc32)CC1 [Example 213, 4-(5H-Dibenzo[a,d]cyclohepten-5-ylidene)-1-(1-naphthoyl)piperidine] | −82 mmHg | 3 mmHg | – |
| C1=Cc2ccccc2C(=C2CCN(CCCCCCCC3CCCCC3)CC2)c2ccccc21.Cl [Example 155, 1-Cyclohexyl-7-(4-(5H-dibenzo[a,d]cyclohepten-5-ylidene)-1-piperidinyl)heptane hydrochloride] | −131 mmHg | −105 mmHg | – |
| CC(=O)OCC1(CCCCN2CCC(=C3c4ccccc4C=Cc4ccccc43)CC2)CCCCC1.Cl [Example 273, 1-Acetoxymethyl-1-(4-(4-(5H-dibenzo[a,d]cyclohepten-5-ylidene)-1-piperidinyl)-1-butyl)cyclohexane hydrochloride] | −37 mmHg | 5 mmHg | – |
| Cl.Fc1ccc(CN2CCC(=C3c4ccccc4C=Cc4ccccc43)CC2)cc1 [Example 113, 4-(5H-Dibenzo[a,d]cyclohepten-5-ylidene)-1-(4-fluorobenzyl)piperidine hydrochloride] | – | – | Decrease in systolic blood pressure (mmHg) time after administration (hour) 0.5 (dose 1 mg/kg i.v. bolus): −151 mmHg; Decrease in systolic blood pressure (mmHg) time after administration (hour) 4 (dose 1 mg/kg i.v. bolus): −81 mmHg |
| Cl.Cl.Nc1ccc(CCCCN2CCC(=C3c4ccccc4C=Cc4ccccc43)CC2)cc1 [Example 195, 1-(4-(4-Aminophenyl)butyl)-4-(5H-dibenzo[a,d]cyclohepten-5-ylidine)piperidine dihydrochloride] | −100 mmHg | −51 mmHg | – |
| CCCC(=O)Nc1ccc(C=CCN2CCC(=C3c4ccccc4C=Cc4ccccc43)CC2)cc1.Cl [Example 381, 1-(4-Butanoylaminocinnamyl)-4-(5H-Dibenzo[a,d]cyclohepten-5-ylidene)piperidine hydrochloride] | – | – | Decrease in systolic blood pressure (mmHg) time after administration (hour) 0.5 (dose 3 mg/kg i.v. bolus): −136 mmHg |
| Cl.O=[N+]([O-])c1ccc(C=CCN2CCC(=C3c4ccccc4C=Cc4ccccc43)CC2)cc1 [Example 325, (5H-Dibenzo[a,d]cyclohepten-5-ylidene)-1-(4-nitrocinnamyl)piperidine hydrochloride] | −115 mmHg | −100 mmHg | – |
| 2,6-Dimethyl-4-(4-(4-(5H-Dibenzo[a,d]cyclohepten-5-ylidene)-1-piperidinyl)-1-butyl)-5-methylpyrydine-3,5-dicarboxylate dihydrochloride [Example 288] | −92 mmHg | −14 mmHg | – |
| Cc1ccc(C(=O)CCCN2CCC(=C3c4ccccc4C=Cc4ccccc43)CC2)cc1C.Cl [Example 198] | −124 mmHg | −25 mmHg | – |
| COc1ccc(CCC(=O)N2CCC(=C3c4ccccc4C=Cc4ccccc43)CC2)cc1OC [Example 202, 4-(5H-Dibenzo[a,d]cyclohepten-5-ylidene)-1-(3-(3′,4′-dimethoxyphenyl)propanoyl)piperidine] | −54 mmHg | −16 mmHg | – |
| COc1ccc(C(=O)CCCN2CCC(=C3c4ccccc4CSc4ccccc43)CC2)cc1OC.Cl [Example 229, 4-(4-(5H-Dibenzo[a,d]thiepin-5-ylidene)-1-piperidinyl)-3+,4+-dimethoxybutyrophenone hydrochloride] | – | – | Decrease in systolic blood pressure (mmHg) time after administration (hour) 0.5 (dose 3 mg/kg i.v. bolus): −77 mmHg; Decrease in systolic blood pressure (mmHg) time after administration (hour) 4 (dose 3 mg/kg i.v. bolus): −14 mmHg |
| CCCCCCCCCCCN1CCC(=C2c3ccccc3C=Cc3ccccc32)CC1.Cl [Example 136, 4-(5H-Dibenzo[a,d]cyclohepten-5-ylidene)-1-undecylpiperidine hydrochloride] | −100 mmHg | −40 mmHg | – |
| CCCCC(C#N)(CCCN1CCC(=C2c3ccccc3C=Cc3ccccc32)CC1)c1cccc(C(F)(F)F)c1.Cl (centres unmarked) [Example 150, 2-Butyl-5-(4-(5H-Dibenzo[a,d]cyclohepten-5-ylidene)-1-piperidinyl)-2-(3-trifluoromethylphenyl)valeronitrile hydrochloride] | −110 mmHg | −47 mmHg | – |
| COc1cccc(CN2CCC(=C3c4ccccc4C=Cc4ccccc43)CC2)c1.Cl [Example 118, 4-(5H-Dibenzo[a,d]cyclohepten-5-ylidene)-1-(3-methoxybenzyl)piperidine hydrochloride] | −129 mmHg | −24 mmHg | – |
| COCC(=O)Oc1ccc(C=CCN2CCC(=C3c4ccccc4C=Cc4ccccc43)CC2)cc1.Cl [Example 383, 4-(5H-Dibenzo[a,d]cyclohepten-5-ylidene)-1-(4-(2-methoxyacetoxy)cinnamyl)piperidine hydrochloride] | – | – | Decrease in systolic blood pressure (mmHg) time after administration (hour) 0.5 (dose 3 mg/kg i.v. bolus): −112 mmHg; Decrease in systolic blood pressure (mmHg) time after administration (hour) 4 (dose 3 mg/kg i.v. bolus): −86 mmHg |
| Cl.O=[N+]([O-])c1ccc(CCCCN2CCC(=C3c4ccccc4C=Cc4ccccc43)CC2)cc1 [Example 196, 4-(5H-Dibenzo[a,d]cyclohepten-5-ylidene)-1-(4-(4-nitrophenyl)butyl)piperidine hydrochloride] | −145 mmHg | −81 mmHg | – |
| C1=Cc2ccccc2C(=C2CCN(CCCOC3CCCCC3)CC2)c2ccccc21.Cl [Example 218, Cyclohexyl 3-(4-(5H-Dibenzo[a,d]cyclohpetan-5-ylidene)-1-piperidinyl)propylether hydrochloride] | −97 mmHg | −11 mmHg | – |
| COc1ccccc1CN1CCC(=C2c3ccccc3C=Cc3ccccc32)CC1.Cl [Example 117, 4-(5H-Dibenzo[a,d]cyclohepten-5-ylidene)-1-(2-methoxybenzyl)piperidine hydrochloride] | −143 mmHg | −25 mmHg | – |
| COC(=O)c1c(C)nc(CCCCN2CCC(=C3c4ccccc4C=Cc4ccccc43)CC2)c(C(=O)OC)c1C.Cl [Example 323, 2-(4-(4-(5H-Dibenzo[a,d]cyclohepten-5-ylidene)-1-piperidinyl)-1-butyl)-3,4-5,6-tetramethylpyridine-3,5-dicarboxylate hydrochloride] | −117 mmHg | −11 mmHg | – |
| C1=Cc2ccccc2C(=C2CCN(Cc3ccccn3)CC2)c2ccccc21.Cl.Cl [Example 161, 4-(5H-Dibenzo[a,d]cyclohepten-5-ylidene)-1-(2-Picolyl)piperidine dihydrochloride] | −64 mmHg | −12 mmHg | – |
| Cc1ccccc1C(=O)N1CCC(=C2c3ccccc3C=Cc3ccccc32)CC1 [Example 190, 4-(5H-Dibenzo[a,d]cyclohepten-5-ylidene)-1-(2-methylbenzoyl)piperidine] | −11 mmHg | −15 mmHg | – |
| C1=Cc2ccccc2C(=C2CCN(CCCCCC3CCCCC3)CC2)c2ccccc21 [Example 11, 1-Cyclohexyl-5-(4-(5H-dibenzo[a,d]cyclohepten-5-ylidene)-1-piperidinyl)pentane hydrochloride] | −166 mmHg | – | – |
| Cl.Oc1ccc(C=CCN2CCC(=C3c4ccccc4C=Cc4ccccc43)CC2)cc1 [Example 363, 4-(5H-Dibenzo[a,d]cyclohepten-5-ylidene)-1-(4-hydroxycinnamyl)piperidine hydrochloride] | – | – | Decrease in systolic blood pressure (mmHg) time after administration (hour) 0.5 (dose 3 mg/kg i.v. bolus): −120 mmHg |
| Cc1ccc(CN2CCC(=C3c4ccccc4C=Cc4ccccc43)CC2)cc1.Cl [Example 133, 4-(5H-Dibenzo[a,d]cyclohepten-5-ylidene)-1-(4-methylbenyl)piperidine hydrochloride] | – | – | Decrease in systolic blood pressure (mmHg) time after administration (hour) 0.5 (dose 3 mg/kg i.v. bolus): −146 mmHg; Decrease in systolic blood pressure (mmHg) time after administration (hour) 4 (dose 3 mg/kg i.v. bolus): −84 mmHg |
| C1=Cc2ccccc2C(=C2CCN(CCC3Cc4ccccc4C3)CC2)c2ccccc21.Cl [Example 310, 2-(2-(4-(5H-Dibenzo[a,d]cyclohepten-5-ylidene)-1-piperidinyl)-1-ethyl)indane hydrochloride] | −90 mmHg | −18 mmHg | – |
| C1=Cc2ccccc2C(=C2CCN(CCCc3ccccc3)CC2)c2ccccc21.Cl [Example 14, 3-(4-(5H-Dibenzo[a,d]cyclohepten-5-ylidene)-1-piperidinyl)-1-phenylpropane hydrochloride] | −105 mmHg | −10 mmHg | – |
